{
  "source": "patent US20260248881A1",
  "about": "“PHARMACEUTICAL COMPOSITION COMPRISING FOXM1 INHIBITOR AND IMMUNE CHECKPOINT INHIBITOR FOR PREVENTING OR TREATING CANCER” (National Cancer Center, priority 2022, published 2026)",
  "key": {"[1]": {"test_system": "c-MYC, cyclin B1, cyclin E1, and cyclin D1", "test": "Western blot of c-MYC and cyclins in H1299 and PC9 cells", "assay_type": "cell-based, human", "details": "both cell lines", "method": "Cells were lysed in RIPA buffer supplemented with complete mini protease inhibitor cocktail (#04693124001; Roche, Basel, Switzerland) and kept on ice for 30 minutes. Equal amounts of protein were evenly loaded and analyzed by sodium dodecyl sulfate-polyacrylamide gel electrophoresis (SDS-PAGE), and transferred to polyvinylidene difluoride (PVDF) membranes (#IPVH 00010; Millipore, Billerica, MA, USA) at 100 V for 1 hour. Primary antibodies (Santa Cruz Biotechnology, Texas, USA) specific for FOXM1 (#sc-271746), cyclin E1 (#sc-481), α-tubulin (#sc-8035), and β-actin (#sc-47778); PD-L1 (#13684S), cyclin D1 (#2978S), cyclin B1 (#4138S), c-MYC (#5605S), and poly(ADP-ribose) polymerase (PARP, #9542S; Cell Signaling Technology, Beverly, MA, USA) were used to probe proteins of interest. A horseradish-peroxidase-conjugated secondary antibodies specific to the primary antibody was used to detect proteins using pico-enhanced chemiluminescence substrate (#34577; Thermo Fisher Scientific)."}, "CD274 promoter": {"test_system": "CD274 promoter", "test": "ChIP-PCR of FOXM1 binding to CD274 promoter", "assay_type": "cell-based, human", "details": "H1299 and PC9; vs respective controls", "method": "To cross-link proteins to DNA, H1299 and PC9 cells were treated with 0.7% formaldehyde at 37° C. for 10 minutes. Cross-linking was quenched by adding glycine to the culture medium at a final concentration of 0.125 M for 5 minutes. The cells were sonicated using a Bioruptor Next Gen sonicator (Diagenode, Denville, NJ, USA) for 5 minutes in 30 s on/30 s off cycle to obtain ~500 bp DNA fragments. The sonicated cell lysates containing genomic DNA fragments were pre-cleared to eliminate unwanted nonspecific components. ChIP was performed using antibody against FOXM1 (#sc-271746, Santa Cruz Biotechnology) with rotation at 4° C. overnight, followed by various washing steps, reverse cross-linking, and protein digestion with proteinase K (#P2308; Sigma-Aldrich, St. Louis, MO, USA). The immunoprecipitated DNA fragments were purified using a phenol-chloroform method, and the purified DNA pellets were resuspended in TE buffer (pH 8.0) and used for PCR. Primers specifically detecting a FOXM1 binding region were designed using a Primer3 tool for chromatin immunoprecipitation-PCR (ChIP-PCR) (Table 1)."}, "[2]": {"test": "In vivo toxicity in xenograft mice (serum biochemical analysis, H&E, TUNEL of normal tissues)", "method": "(§1) IHC staining was performed using anti-rabbit-HRP antibodies (K4003, EnVision+ HRP Labelled Polymer Anti-Rabbit, Dako, Agilent Technologies, Carpinteria, CA, USA) and 3,3′-diaminobenzidine (DAB) (K3468, DAB+ Chromogen, Dako, Agilent Technologies, Santa Clara, CA, USA) as substrates, and the sections were counterstained with hematoxylin (K8008, EnVision FLEX Hematoxylin, Dako, Agilent Technologies Singapore, Singapore). To analyze the in vivo toxicity of the tested drugs, four xenograft mice from each group were used for serum biochemical analysis (Table 2). On day 9, serum samples were collected from the mice in the control and TST-treated groups. In addition, the vital organs (liver, spleen, and kidney) were collected form mice, sectioned, and stained with H&E to monitor histopathological changes."}, "H1299 and PC9 cells": {"test_system": "H1299 and PC9 cells", "test": "Cell proliferation assay (WST-1)", "assay_type": "cell-based, human", "details": "5 μM TST or siRNA knockdown; 24, 48, and 72 hours; both cell lines", "method": "H1299 and PC9 cells were grown in 96-well plates, treated with 5 µM TST, or transfected with siFOXM1 at a density of 3,000 cells/well […]. Cell proliferation was recorded at the specified times by adding 4-[3-(4-iodophenyl)-2-(4-nitro-phenyl)-2H-5-tetrazolio]-1,3-benzene sulfonate) (WST-1, #MK400, TaKaRa Bio) at 37° C. for 2 hours, and absorbance was measured at 450 nm. All experiments were performed in quadruplicate."}, "human H1299 or PC9 cells": {"test_system": "human H1299 or PC9 cells", "test": "Xenograft tumor model", "assay_type": "in vivo, BALB/c nude mice", "method": "Mice (n=6) were injected intraperitoneally with TST dissolved in DMSO at a dose of 17 mg/kg every 2 days before euthanasia and sacrifice. Tumor volume and body weight of the mice were measured every other day. […] Two days after the final TST injection, all mice were sacrificed, and tumor tissues were collected for immunohistochemical (IHC) staining of FOXM1 and PD-L1. The tissues were fixed in 10% neutralized formaldehyde and embedded in paraffin blocks. Tissue microarray (TMA) slides were made with a 4 mm diameter per sample and sectioned at 4 μm thickness to perform IHC with anti-FOXM1 (#20459S) or anti-PD-L1 (#13684S) (Cell Signaling Technology) antibodies. Autostainer Link48 (Dako, Agilent Technologies, Santa Clara, CA, USA) was used for analysis.\nas §1\nTo investigate the effect of TST, which is a FOXM1 inhibitor, on tumor growth and PD-L1 expression in vivo, human H1299 or PC9 cells (5×10^6) were subcutaneously implanted into BALB/c nude mice (n=6 per group). When the average size of the xenografted tumor masses reached approximately 170 mm^3, TST was injected intraperitoneally into the mice at a dose of 17 mg/kg four times every 2 days (FIG. 7a). […] 2 days after the final TST treatment, the mice were sacrificed. […]"}},
  "data": [
    {"substance": "thiostrepton [TST]", "values": [
      {"measurement": "protein levels of c-MYC, cyclin B1, and cyclin D1", "setting": "[1]", "result": "significantly decreased"},
      {"measurement": "FOXM1 binding to the CD274 promoter", "setting": "CD274 promoter", "result": "dramatic decrease"},
      {"measurement": "histological changes in vital organs (H&E staining)", "setting": "[2]; liver, spleen, kidney", "result": "no significant histological changes"},
      {"measurement": "A/G ratio", "setting": "[2]; serum, day 9, n = 4", "result": "1.99 ± 0.13"},
      {"measurement": "ALP", "setting": "[2]; serum, day 9, n = 4", "result": "91.50 ± 15.04", "unit": "U/L"},
      {"measurement": "ALT", "setting": "[2]; serum, day 9, n = 4", "result": "31.25 ± 4.21", "unit": "U/L"},
      {"measurement": "AST", "setting": "[2]; serum, day 9, n = 4", "result": "82.75 ± 8.58", "unit": "U/L"},
      {"measurement": "Alb", "setting": "[2]; serum, day 9, n = 4", "result": "3.28 ± 0.08", "unit": "g/dL"},
      {"measurement": "BUN", "setting": "[2]; serum, day 9, n = 4", "result": "19.70 ± 1.11", "unit": "mg/dL"},
      {"measurement": "Crea", "setting": "[2]; serum, day 9, n = 4", "result": "0.00 ± 0.00", "unit": "mg/dL"},
      {"measurement": "Glo", "setting": "[2]; serum, day 9, n = 4", "result": "1.65 ± 0.09", "unit": "g/dL"},
      {"measurement": "Glu", "setting": "[2]; serum, day 9, n = 4", "result": "321.00 ± 58.73", "unit": "mg/dL"},
      {"measurement": "T-Bill", "setting": "[2]; serum, day 9, n = 4", "result": "0.10 ± 0.00", "unit": "mg/dL"},
      {"measurement": "T-chol", "setting": "[2]; serum, day 9, n = 4", "result": "107.50 ± 3.20", "unit": "mg/dL"},
      {"measurement": "TG", "setting": "[2]; serum, day 9, n = 4", "result": "118.00 ± 14.88", "unit": "mg/dL"},
      {"measurement": "TP", "setting": "[2]; serum, day 9, n = 4", "result": "4.93 ± 0.08", "unit": "g/dL"},
      {"measurement": "levels of blood biomarkers", "setting": "[2]; vs DMSO control group", "result": "not significantly changed"},
      {"measurement": "apoptotic cell death in normal tissues (TUNEL assay)", "setting": "[2]; vs DMSO control tissues", "result": "no effect on apoptotic cell death in normal tissues"},
      {"measurement": "cell proliferation", "setting": "H1299 and PC9 cells", "result": "decreased in a time-dependent manner"},
      {"measurement": "FOXM1 and PD-L1 expression in tumors (immunohistochemical analysis)", "setting": "human H1299 or PC9 cells; 2 days after final TST treatment, vs control mice", "result": "significantly downregulated"},
      {"measurement": "tumor volume", "setting": "human H1299 or PC9 cells; TST 17 mg/kg intraperitoneally four times every 2 days, vs control group", "result": "significant decrease in tumor volume"},
      {"measurement": "body weight", "setting": "human H1299 or PC9 cells; after 9 days, TST vs control", "result": "no difference in body weight"}
    ]}
  ]
}
